Target: 5-hydroxytryptamine receptor 2C (Homo sapiens) (UniProt P28335)
Experiment: Antagonist activity at human 5HT2C receptor expressed in CHO cells assessed as inhibition of 5-HT-stimulated [35S]GTPgamma binding

5-hydroxytryptamine receptor 2C (Homo sapiens), sequence (P28335 whole entry, looked up): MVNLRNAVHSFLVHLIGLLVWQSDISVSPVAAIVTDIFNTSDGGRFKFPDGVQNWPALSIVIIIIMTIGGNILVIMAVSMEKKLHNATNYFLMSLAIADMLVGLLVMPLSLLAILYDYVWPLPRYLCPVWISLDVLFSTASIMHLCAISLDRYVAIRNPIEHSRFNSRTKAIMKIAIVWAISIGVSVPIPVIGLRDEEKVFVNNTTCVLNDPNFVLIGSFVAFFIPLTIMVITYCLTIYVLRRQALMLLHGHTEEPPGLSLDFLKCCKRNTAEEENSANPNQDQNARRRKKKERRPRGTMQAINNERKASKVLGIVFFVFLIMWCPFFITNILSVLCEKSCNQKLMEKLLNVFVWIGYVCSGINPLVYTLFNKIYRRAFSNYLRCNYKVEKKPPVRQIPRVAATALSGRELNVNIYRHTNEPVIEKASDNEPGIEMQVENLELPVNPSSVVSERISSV

CC(C)N(c1cccc(N2CCN(C)CC2)c1)S(=O)(=O)c1ccc2ccccc2c1
inhibition: Dose-dependent effect
